Reference: publication PMC7374097, “UGT2B17 modifies drug response in chronic lymphocytic leukaemia” (British Journal of Cancer, 2020)
Read-outs that look alike come from different tables or passages of the source.

B1: UGT1A4 (Homo sapiens) (protein)
chain: GKVLVVPTDGSPWLSMREALRELHARGHQAVVLTPEVNMHIKEEKFFTLTAYAVPWTQKEFDRVTLGYTQGFFETEHLLKRYSRSMAIMNNVSLALHRCCVELLHNEALIRHLNATSFDVVLTDPVNLCGAVLAKYLSIPAVFFWRYIPCDLDFKGTQCPNPSSYIPKLLTTNSDHMTFLQRVKNMLYPLALSYICHTFSAPYASLASELFQREVSVVDLVSYASVWLFRGDFVMDYPRPIMPNMVFIGGINCANGKPLSQEFEAYINASGEHGIVVFSLGSMVSEIPEKKAMAIADALGKIPQTVLWRYTGTRPSNLANNTILVKWLPQNDLLGHPMTRAFITHAGSHGVYESICNGVPMVMMPLFGDQMDNAKRMETKGAGVTLNVLEMTSEDLENALKAVINDKSYKENIMRLSSLHKDRPVEPLDLAVFWVEFVMRHKGAPHLRPAAHDLTWYQYHSLDVIGFLLAVVLTVAFITFKCCAYGYRKCLGKKGRVKKAHKSKTH
B2: UGT2B17 (Homo sapiens) (protein)
chain: GKVLVWPTEYSHWINMKTILEELVQRGHEVIVLTSSASILVNASKSSAIKLEVYPTSLTKNDLEDFFMKMFDRWTYSISKNTFWSYFSQLQELCWEYSDYNIKLCEDAVLNKKLMRKLQESKFDVLLADAVNPCGELLAELLNIPFLYSLRFSVGYTVEKNGGGFLFPPSYVPVVMSELSDQMIFMERIKNMIYMLYFDFWFQAYDLKKWDQFYSEVLGRPTTLFETMGKAEMWLIRTYWDFEFPRPFLPNVDFVGGLHCKPAKPLPKEMEEFVQSSGENGIVVFSLGSMISNMSEESANMIASALAQIPQKVLWRFDGKKPNTLGSNTRLYKWLPQNDLLGHPKTKAFITHGGTNGIYEAIYHGIPMVGIPLFADQHDNIAHMKAKGAALSVDIRTMSSRDLLNALKSVINDPIYKENIMKLSRIHHDQPVKPLDRAVFWIEFVMRHKGAKHLRVAAHNLTWIQYHSLDVIAFLLACVATMIFMITKCCLFCFRKLAKTGKKKKRD

Tests used:
[1] = tested on: MEC1 cells; experiment: MTS cell viability assay, MEC1 cells (control or overexpressing UGT2B17); assay type: cell-based, human; details: for IC50: Homo sapiens, 72 h; for Fold over control: MEC1, IC50 2B17 / CTRL
Method: (§1) Cells were plated at 1 × 10^4 cells/well (MEC1) or at 5 × 10^4 cells/well (JVM2) in 96-well U-bottom tissue culture plates (BD Bioscience, Mississauga, ON, Canada). Drugs were added at time of plating at concentrations ranging from 1 nM to 100 µM (7–9 concentrations per drug), depending on the drug and based on cell viability. MTS cell viability assays (Aqueous One assay, Promega, Madison, WI, USA) were conducted 72 h after treatment initiation according to the manufacturer’s instructions. […] Control cells were treated with corresponding vehicle concentration. […] IC50 were calculated by fitting variable slope non-linear curves to normalised response data from drug treatments using GraphPad Prism v5 (GraphPad Software Inc., La Jolla, CA, USA). Assays were replicated at least three times in triplicates.

[2] = tested on: JVM2 cells; experiment: MTS cell viability assay, JVM2 cells (control or overexpressing UGT2B17); assay type: cell-based, human; details: for IC50: Homo sapiens, JVM-2, 72 h; for Fold over control: JVM2, IC50 2B17 / CTRL
Method: as §1

[3] = tested on: human liver microsomes; experiment: Glucuronidation assay with human liver microsomes; details: for Glucuronide (G) products formed: pooled human liver microsomes, MS
Method: (§2) Electrospray ionisation was performed in the positive ion mode.

[4] = tested on: individual human UGT isoforms; experiment: Screening of tissues and individual recombinant UGT1A (n = 8) and UGT2B (n = 6) enzymes by quantitative MS; details: liver, kidney, intestine and recombinant UGTs
Method: as §2

[5] = tested on: JVM2 cells; details: JVM2, Annexin V/PI, 72 h
Method: (§3) Cells plated in 96-well plates at 2 × 10^4 cells/well (MEC1) or 3 × 10^4 cells/well (JVM2) were exposed to varying drug concentrations as above for 72 h. Cells were washed, labelled for 12 min with Annexin V (1:200) and PI (2 µg/ml) in Annexin V binding buffer, then immediately analysed by flow cytometry on a FACSCelesta equipped with a high throughput sampler (BD Bioscience). Annexin V labelling assays were replicated at least twice in duplicates.
(§4) MEC1 (a, c, e) and JVM2 (b, d, f) cells expressing low or high UGT2B17 levels were exposed to
(§5) increasing drug concentrations. Cells were stained with Annexin V (AnV) and propidium iodide (PI) 72
(§6) hours after treatment initiation. The AV-/PI- cells constituted the viable cell population.

[6] = tested on: MEC1 cells; details: MEC1, Annexin V/PI, 72 h
Method: as §3, §4, §5, §6

[7] = tested on: fludarabine glucuronidation; experiment: Fludarabine glucuronidation in drug-treated cell models; assay type: cell-based, human
Method: as §2

[8] = Glucuronidation assay with human liver microsomes; details: human, human liver microsomes, pH 7.5
Method: as §2

[9] = tested on: UGT2B17 expression; experiment: UGT2B17 mRNA by RT-qPCR in drug-treated cell models; assay type: cell-based, human; details: MEC1, JVM2 and EHEB cells, drug treatment; P < 0.01
[10] = biological target: T1, UGT1A4 (Homo sapiens, UniProt P22310); experiment: Glucuronidation assay with UGT1A4 supersomes; details: for Ki: UGT1A4 inhibitory constant Ki, UGT1A4, inhibitor hecogenin
T1 sequence (P22310 29-534): B1 chain
Method: In the absence of commercially available UGT2B11 supersomes, microsomal proteins derived from HEK293 expressing the recombinant UGT2B11 enzyme were used. […] Samples were then stopped by adding 100 µL cold methanol, centrifuged at 16,000×g for 10 min and supernatants analysed by mass spectrometry. The following negative controls were included for each analysis: reaction assays without substrate, without the microsomal fraction and without substrate and microsomal fraction.

[11] = biological target: T2, human liver microsomes (Homo sapiens, UniProt P22310); experiment: Glucuronidation assay with human liver microsomes; details: UGT1A4 inhibitory constant Ki, Liver, inhibitor hecogenin
T2 sequence (P22310 29-534): B1 chain
Method: as §2

[12] = substrate: Nc1nc(F)nc2c1ncn2[C@@H]1O[C@H](CO)[C@@H](O)[C@@H]1O; experiment: cells, lysate or membranes named; details: predominant drug-G, pH 7.5, 37.0 °C
[13] = MEC1 cells overexpressing UGT2B17, MTS, read-out: 2B17 IC50
[14] = MEC1 control cells, MTS, read-out: CTRL IC50
[15] = JVM2 cells overexpressing UGT2B17, MTS, read-out: 2B17 IC50
[16] = JVM2 control cells, MTS, read-out: CTRL IC50

Row | Molecule | IC50 [1, 13] [µM] | IC50 [1, 14] [µM] | Fold over control [1] | IC50 [2, 15] [µM] | IC50 [2, 16] [µM] | Fold over control [2] | Glucuronide (G) products formed [3] | further results
1 | Cn1c(CCCC(=O)O)nc2cc(N(CCCl)CCCl)ccc21 [Bendamustine, bendamustine] | 76 | 60.1 | 1.27 | 62.8 | 54.2 | 1.16 | at least one G product | –
2 | O=C(O)CCCc1ccc(N(CCCl)CCCl)cc1 [Chlorambucil, chlorambucil] | 12.3 | 7.99 | 1.55 | 8.64 | 10.4 | 0.83 | at least one G product | UGT enzyme(s) involved in glucuronidation of the drug [4]: UGT2B17 plays a role in the inactivation
3 | Nc1nc(F)nc2c1ncn2[C@@H]1O[C@H](CO)[C@@H](O)[C@@H]1O [Fludarabine, fludarabine] | 58.8 | 29.3 | 2.01 | 15.1 | 9.08 | 1.66 | two glucuronides | Concentration at which cytotoxic [5]: > 5 µM; Cytotoxicity at clinically relevant concentrations [5]: no cytotoxicity; Concentration at which cytotoxicity was observed [6]: > 40 µM; Cytotoxicity at clinically relevant concentrations [6]: no cytotoxicity; UGT enzyme(s) involved in glucuronidation of the drug [4]: UGT2B17 and UGT1A4 were the main conjugating enzymes; Fludarabine glucuronidation following drug treatment [7]: increased; Velocity Vmax ([3]; Liver, predominant drug-G, velocity at highest substrate concentration): 0.12 pmol/min/mg protein; Km at 6 h [8]: 878 µM; Induction of UGT2B17 expression [9]: significantly induced
4 | C[C@@H]1CC[C@@]2(OC1)O[C@H]1C[C@H]3[C@@H]4CC[C@H]5C[C@@H](O)CC[C@]5(C)[C@H]4CC(=O)[C@]3(C)[C@H]1[C@@H]2C [Hecogenin, hecogenin] | – | – | – | – | – | – | – | Formation of ibrutinib and idelalisib G1 and G2 abolished ([10]; UGT1A4 and livers, in the presence of hecogenin): ~90%; Ki ([10]; substrate ibrutinib): 2.8 µM; Ki ([10]; substrate idelalisib): 0.6 µM; Ki ([11]; substrate ibrutinib): 5.8 µM; Ki ([11]; substrate idelalisib): 0.9 µM
5 | C=CC(=O)N1CCC[C@@H](n2nc(-c3ccc(Oc4ccccc4)cc3)c3c(N)ncnc32)C1 [Ibrutinib, ibrutinib] | 4.13 | 0.99 | – | 8.95 | 3.64 | – | – | –
6 | CC[C@H](Nc1ncnc2[nH]cnc12)c1nc2cccc(F)c2c(=O)n1-c1ccccc1 [Idelalisib, idelalisib] | 7.4 | 1.73 | – | 2.95 | 1.79 | – | – | Cytotoxicity at clinically relevant concentrations [5]: low and no cytotoxicity; Cytotoxicity at clinically relevant concentrations [6]: low and no cytotoxicity; Fludarabine glucuronidation following drug treatment [7]: increased
7 | CC1(C)CCC(CN2CCN(c3ccc(C(=O)NS(=O)(=O)c4ccc(NCC5CCOCC5)c([N+](=O)[O-])c4)c(Oc4cnc5[nH]ccc5c4)c3)CC2)=C(c2ccc(Cl)cc2)C1 [Venetoclax, venetoclax] | 4.16 | 2.22 | 1.87 | 2.94 | 4.06 | 0.72 | at least one G product | –
8 | CC#CC(=O)N1CCC[C@H]1c1nc(-c2ccc(C(=O)Nc3ccccn3)cc2)c2c(N)nccn12 [acalibrutinib, acalabrutinib] | – | – | – | – | – | – | at least one G product | –
9 | CCS(=O)(=O)N1CCN(c2ccc(Nc3ncc(C(N)=O)c(NC4CC4)n3)cc2)CC1 [cerdulatinib] | – | – | – | – | – | – | at least one G product | UGT enzyme(s) involved in glucuronidation of the drug [4]: UGT2B17 plays a role in the inactivation
10 | C[C@H](Nc1ncnc2[nH]cnc12)c1cc2cccc(Cl)c2c(=O)n1-c1ccccc1 [duvelisib] | – | – | – | – | – | – | at least one G product | –
11 | B1 | – | – | – | – | – | – | – | Km ([12]; other: UGT1A4): 1020 µM; Vmax ([12]; other: UGT1A4): 0.05 pmol/min/mg protein
12 | B2 | – | – | – | – | – | – | – | Km ([12]; other: UGT2B17): 949 µM; Vmax ([12]; other: UGT2B17): 0.01 pmol/min/mg protein
